Test results from paper PMC8116058, “De novo macrocyclic peptides dissect energy coupling of a heterodimeric ABC transporter by multimode allosteric inhibition” (eLife, 2021).
Positions of bridges follow the written chain, without caps; N, C: chain ends. Non-standard residues stand in square brackets, D forms with d. Residues, ends and D or L forms follow the SMILES beside them. *: point of attachment. 5FAM = O=C1OC2(c3ccc(O)cc3Oc3cc(O)ccc32)c2ccc(C(=O)*)cc21; βAla = NCCC(=O)O

Columns and labels:
TmrAB = test: Conformational epitope test, CP^F anisotropy with TmrAB and SDS; format: binding, Thermus thermophilus
Method: In order to analyze the binding affinity and specificity of CPs to TmrAB, we established a fluorescence polarization assay. Fluorescein-labeled CP^Fs were incubated with increasing concentrations of TmrAB reconstituted in liposomes at a protein-to-lipid ratio of 1:20 (w/w). […] To address whether the CPs recognize a linear or non-linear epitope, we examined the binding of CP^Fs after disrupting the quaternary and tertiary structure of TmrAB complexes by adding anionic detergent SDS.
Figure 2. […] (A, B) Equilibrium binding analysis. Fluorescence anisotropy of CP^Fs (50 nM) was determined at λex/em = 485/520 nm with increasing concentrations of TmrAB which was reconstituted in liposomes. TmrAB concentrations were calculated based on the random (50/50%) orientation in proteoliposomes ([Stefan et al., 2020]). As a control, equal amounts of empty liposomes were added to CP^Fs (dashed lines, open symbols). The difference in fluorescence polarization was normalized to free (0%) and 100% bound CP^F. Mean values ± SD (n = 3) are shown, and data were analyzed by a one-site binding model. […] Streptavidin beads loaded with CP14^B (1 µM) were mixed with purified TmrAB (60 nM) for 1 hr at 4°C. Beads were washed and bound TmrAB was eluted by adding SDS loading buffer for 10 min at 95°C. Amounts of TmrA in input (I), flow-through (FT), wash fraction (W), and eluate (E) were analyzed by SDS-PAGE and immunoblotting (α-His). Beads without CP^B served as negative control (right panel). (D) One-step purification of TmrAB via immobilized CP14^B matrices. Streptavidin-agarose beads were loaded with CP14^B (1 µM) and mixed with DDM-solubilized membranes of E. coli containing TmrAB as described in (C). Bound TmrAB was eluted in SDS loading buffer and analyzed by SDS-PAGE (silver stain). (E) Native mass spectrometry. TmrAB (4 µM) was buffer exchanged to ESI buffer and incubated with a 2-fold molar excess of CP14^F for 10 min on ice. Protein complexes were investigated by ESI-TOF-mass spectrometry. […] Figure 2—source data 1. Source data for Figure 2. Figure 2—figure supplement 1. […] (A) CP^Bs-mediated isolation of solubilized TmrAB. Streptavidin matrices were loaded with CP^Bs (1 µM) and incubated with purified TmrAB (60 nM) for 1 hr at 4°C. Beads without CP^Bs served as control (see Figure 2C). Bound TmrAB complexes were eluted by the addition of SDS loading buffer for 10 min at 95°C. TmrAB in input (I), flow-through (FT), washing fraction (W), and eluate (E) was analyzed by SDS-PAGE and immunoblotting (α-His). (B) Isolation of TmrAB using CP13^B. Streptavidin matrices were loaded with CP13^B (1 µM) and mixed with DDM-solubilized membranes of E. coli expressing TmrAB as described in (A). Bound TmrAB complexes were eluted in SDS loading buffer and analyzed by SDS-PAGE (silver stain). (C) Formation of CP^F-TmrAB complexes. DDM-solubilized TmrAB (1 µM) was incubated with CP12^F, CP13^F, CP14^F (2 µM each), or CP6^F (5 µM) for 10 min on ice. CP^F-TmrAB complexes were analyzed by gel filtration. […] (D) Conformational epitopes. CP^Fs (50 nM) were incubated with TmrAB (0.6 µM for CP6^F and CP13^F, 0.7 µM for CP12^F, 0.5 µM for CP14^F) in the presence of 1% (v/v) SDS. Fluorescence anisotropy was determined at λex/em = 485/520 nm. […] Figure 2—figure supplement 1—source data 1. Source Data for Figure 2—figure supplement 1. [drawing 2] Figure 2—figure supplement 2. Analysis of CP^F-TmrAB complexes by native mass spectrometry.

TmrAB in liposomes = test: ATP hydrolysis assay; format: biochemical, Thermus thermophilus; conditions: TmrAB in liposomes 100 nM; ATP 2 mM; CP^F 1 µM; 10 min 45°C; without CP 1.49, autohydrolysis 0.62
From the text: In order to investigate the functional impact of CPs, we examined the effect of the CPs on ATP hydrolysis and substrate transport of TmrAB (Figure 3A). We reconstituted TmrAB in liposomes and first assayed the ATPase activity. […] We next set out to investigate peptide transport by TmrAB using a filter-based transport assay. To investigate whether CPs are recognized as substrates by TmrAB, we added fluorescein-labeled CP^Fs and examined ATP-dependent translocation. In contrast to the linear substrate peptide C4F, none of the CP^Fs were transported by TmrAB (Figure 3C). Next, we examined ATP-dependent transport of C4F peptides in the presence and absence of the different CPs.
Figure 3. CP^Fs are potent inhibitors of ATP turnover and substrate transport. (A) Experimental scheme of ATP hydrolysis and peptide transport by TmrAB. (B) CP^Fs inhibit ATP hydrolysis. TmrAB in liposomes (100 nM) was incubated with ATP (2 mM, traced with [γ^32P]-ATP), and MgCl2 (5 mM) in the presence and absence of CP^Fs (1 µM) for 10 min at 45°C. Autohydrolysis was determined in the absence of TmrAB, and background turnover was conducted in the presence of EDTA (10 mM). Release of [γ^32P] was quantified by thin layer chromatography. (C) CP^Fs are not transported by TmrAB. TmrAB (0.4 µM) reconstituted in liposomes was incubated with C4F peptide (3 µM) or CP^Fs (1 µM) in the presence of ATP/ADP (3 mM) and MgCl2 (5 mM) for 5 min at 45°C. Since CP^Fs were dissolved in maximal 0.5% (v/v) of DMSO, C4F plus 0.5% DMSO served as control. Proteoliposomes were washed on filter plates, and transported peptides were quantified at λex/em = 485/520 nm. (D) Inhibition of substrate translocation. TmrAB in liposomes (0.4 µM) were incubated with C4F peptide (3 µM), ATP/ADP (3 mM), and MgCl2 (5 mM) in the presence and absence of CP^Fs (1 µM) for 15 min at 45°C. Transported peptides were quantified as described in (C). In (B–C), mean values ± SD (n = 3) are shown. Figure 3—source data 1. Source data for Figure 3.
TmrAB reconstituted in liposomes (100 nM) were incubated with ATP (2 mM) traced with [γ^32P]-ATP (Hartmann Analytic), ouabain (1 mM), NaN3 (5 mM), EGTA (50 µM), MgCl2 (3 mM), and CP^Fs (1 µM) for 10 min at 45°C. Autohydrolysis and background hydrolysis were examined in the absence of proteoliposomes or the presence of EDTA (10 mM). Samples were spotted onto polyethyleneimine cellulose plates (Merck Millipore), and thin-layer chromatography was performed with 0.8 M LiCl-acetic acid pH 3.2. Plates were developed overnight on Exposure Cassette-K (Bio-Rad) and evaluated on Personal Molecular Imager System (Bio-Rad). Data were recorded in triplicates and the mean values ± SD (n = 3) are shown.

[1] = listed as CPF: CP^F 50 nM alone
[2] = listed as SDS: CP^F 50 nM + TmrAB + 1% (v/v) SDS
[3] = listed as TmrAB: CP^F 50 nM + TmrAB (0.6 µM CP6^F/CP13^F, 0.7 µM CP12^F, 0.5 µM CP14^F)

CC[C@H](C)[C@@H]1NC(=O)[C@H]([C@@H](C)O)NC(=O)[C@H](CC(C)C)NC(=O)[C@H](Cc2c[nH]c3ccccc23)NC(=O)[C@H](Cc2ccccc2)NC(=O)[C@H](CC(N)=O)NC(=O)[C@H](CCC(=O)O)NC(=O)[C@H](CC(C)C)NC(=O)[C@H](CS)NC(=O)[C@H](Cc2c[nH]cn2)NC(=O)[C@H](CO)NC(=O)[C@@H](Cc2ccc(O)cc2)NC(=O)CSC[C@@H](C(=O)NCC(=O)N[C@@H](CO)C(=O)NCCC(=O)NCCC(=O)N[C@@H](CCCNC(=N)N)C(=O)N[C@@H](CCCCNC(=O)c2ccc3c(c2)C(=O)OC32c3ccc(O)cc3Oc3cc(O)ccc32)C(N)=O)NC(=O)[C@H](CC(C)C)NC1=O [CP6] ({CH2CO}-[dY]SHCLENFWLTILCGS[βAla][βAla]RK(5FAM)-NH2; thioether N-14)
Fluorescence anisotropy (TmrAB; [1]): 0.0222
Fluorescence anisotropy (TmrAB; [2]): 0.0146
Fluorescence anisotropy (TmrAB; [3]): 0.1093
ATP hydrolysis (TmrAB in liposomes): 0.54 mmol Pi (g*min)^-1

CC(C)C[C@@H]1NC(=O)[C@H](Cc2ccccc2)NC(=O)CNC(=O)[C@H](CO)NC(=O)[C@H](Cc2ccccc2)NC(=O)[C@H](CC(=O)O)NC(=O)[C@@H]2CCCN2C(=O)[C@H]([C@@H](C)O)NC(=O)[C@@H](Cc2ccc(O)cc2)NC(=O)CSC[C@@H](C(=O)NCC(=O)N[C@@H](CO)C(=O)NCCC(=O)NCCC(=O)N[C@@H](CCCNC(=N)N)C(=O)N[C@@H](CCCCNC(=O)c2ccc3c(c2)C(=O)OC32c3ccc(O)cc3Oc3cc(O)ccc32)C(N)=O)NC(=O)[C@H](C)NC(=O)[C@H](CC(N)=O)NC(=O)[C@H](CCCNC(=N)N)NC(=O)[C@H](CC(C)C)NC(=O)[C@H](Cc2ccccc2)NC(=O)[C@H](C)NC1=O [CP12] ({CH2CO}-[dY]TPDFSGFLAFLRNACGS[βAla][βAla]RK(5FAM)-NH2; thioether N-16)
Fluorescence anisotropy (TmrAB; [1]): 0.0250
Fluorescence anisotropy (TmrAB; [2]): 0.0265
Fluorescence anisotropy (TmrAB; [3]): 0.1604
ATP hydrolysis (TmrAB in liposomes): 0.37 mmol Pi (g*min)^-1

CC[C@H](C)[C@@H]1NC(=O)[C@H](Cc2c[nH]c3ccccc23)NC(=O)[C@H](CC(N)=O)NC(=O)[C@H](C)NC(=O)[C@H](CO)NC(=O)[C@@H]2CCCN2C(=O)[C@H](CC(=O)O)NC(=O)[C@@H](Cc2ccc(O)cc2)NC(=O)CSC[C@@H](C(=O)NCC(=O)N[C@@H](CO)C(=O)NCCC(=O)NCCC(=O)N[C@@H](CCCNC(=N)N)C(=O)N[C@@H](CCCCNC(=O)c2ccc3c(c2)C(=O)OC32c3ccc(O)cc3Oc3cc(O)ccc32)C(N)=O)NC(=O)[C@H]([C@@H](C)O)NC(=O)[C@H](CC(C)C)NC(=O)[C@H](CC(C)C)NC(=O)[C@H](C(C)C)NC(=O)[C@H](CC(C)C)NC1=O [CP13] ({CH2CO}-[dY]DPSANWILVLLTCGS[βAla][βAla]RK(5FAM)-NH2; thioether N-14; C-terminus assumed)
Fluorescence anisotropy (TmrAB; [1]): 0.0252
Fluorescence anisotropy (TmrAB; [2]): 0.0310
Fluorescence anisotropy (TmrAB; [3]): 0.1217
ATP hydrolysis (TmrAB in liposomes): 0.39 mmol Pi (g*min)^-1

CC(C)[C@@H]1NC(=O)[C@H](Cc2ccccc2)NC(=O)[C@@H]2CCCN2C(=O)[C@H](CC(N)=O)NC(=O)[C@H](Cc2c[nH]c3ccccc23)NC(=O)[C@H](C(C)C)NC(=O)[C@H](Cc2ccc(O)cc2)NC(=O)[C@H](Cc2ccccc2)NC(=O)[C@@H](Cc2ccc(O)cc2)NC(=O)CSC[C@@H](C(=O)NCC(=O)N[C@@H](CO)C(=O)NCCC(=O)NCCC(=O)N[C@@H](CCCNC(=N)N)C(=O)N[C@@H](CCCCNC(=O)c2ccc3c(c2)C(=O)OC32c3ccc(O)cc3Oc3cc(O)ccc32)C(N)=O)NC(=O)[C@H](CCCCN)NC(=O)[C@H](Cc2ccccc2)NC1=O [CP14] ({CH2CO}-[dY]FYVWNPFVFKCGS[βAla][βAla]RK(5FAM)-NH2; thioether N-12; C-terminus assumed)
Fluorescence anisotropy (TmrAB; [1]): 0.0267
Fluorescence anisotropy (TmrAB; [2]): 0.0311
Fluorescence anisotropy (TmrAB; [3]): 0.1410
ATP hydrolysis (TmrAB in liposomes): 0.39 mmol Pi (g*min)^-1
